Measurements: ChEMBL document CHEMBL1134524, “Utilization of an intramolecular hydrogen bond to increase the CNS penetration of an NK(1) receptor antagonist” (J Med Chem, 2001)

Key:
Substance-P receptor = Substance-P receptor (Homo sapiens, UniProt P25103); assay: Inhibition of specific binding at tachykinin receptor 1
Meriones unguiculatus = assay: Minimal effective dose to antagonize the foot tapping response when administered subcutaneously (0.1-10 mg/kg) in gerbil; settings: sc, read-out: MED

Chain of Substance-P receptor (P25103 whole entry): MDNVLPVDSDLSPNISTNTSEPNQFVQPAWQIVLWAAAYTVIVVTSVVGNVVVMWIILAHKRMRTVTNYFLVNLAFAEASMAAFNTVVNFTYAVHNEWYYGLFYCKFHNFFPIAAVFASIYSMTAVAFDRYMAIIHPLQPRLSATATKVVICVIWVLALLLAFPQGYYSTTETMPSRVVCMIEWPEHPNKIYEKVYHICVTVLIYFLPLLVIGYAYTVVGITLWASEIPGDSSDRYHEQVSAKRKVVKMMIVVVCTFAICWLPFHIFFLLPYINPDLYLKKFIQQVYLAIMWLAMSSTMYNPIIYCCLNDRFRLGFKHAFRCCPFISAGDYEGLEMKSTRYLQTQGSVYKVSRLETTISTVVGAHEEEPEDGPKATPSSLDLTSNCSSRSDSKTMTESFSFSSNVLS

Row | SMILES | IC50 (Substance-P receptor) [nM] | minimal effective dose (Meriones unguiculatus) [mg/kg]
1 | COC[C@](Cc1c[nH]c2ccccc12)(NC(=O)OCc1cc2ccccc2o1)C(=O)N[C@@H](C)c1ccccc1 | 0.7 | 
2 | C[C@H](NC(=O)[C@](Cc1c[nH]c2ccccc12)(CN(C)C)NC(=O)OCc1cc2ccccc2o1)c1ccccc1 | 0.46 | 1
3 | CC(C)C[C@](Cc1c[nH]c2ccccc12)(NC(=O)OCc1cc2ccccc2o1)C(=O)N[C@@H](C)c1ccccc1 | 3.79 | 

The remaining compounds from weak to strong by IC50 (Substance-P receptor), led by results:

Row | IC50 (Substance-P receptor) [nM] | SMILES | minimal effective dose (Meriones unguiculatus) [mg/kg]
4 | 0.96 | CC[C@](Cc1c[nH]c2ccccc12)(NC(=O)OCc1cc2ccccc2o1)C(=O)N[C@@H](C)c1ccccc1 | 
5 | 0.85 | CCC[C@](Cc1c[nH]c2ccccc12)(NC(=O)OCc1cc2ccccc2o1)C(=O)N[C@@H](C)c1ccccc1 | 
6 | 0.73 | C[C@H](NC(=O)[C@@H](Cc1c[nH]c2ccccc12)NC(=O)OCc1cc2ccccc2o1)c1ccccc1 | 
